The record followed here is PubChem BioAssay (NCI).

Structures are written as SMILES.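 Method: 48-hour compound exposure of cells in 96-well plates, five concentrations, linear interpolation of endpoints. GI50: concentration for 50% inhibition of growth. TGI: concentration producing complete growth inhibition.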

Test systems include EKVX NSCLC; COLO 205 colon; BT-549 breast; MALME-3M melanoma; SK-MEL-5 melanoma; SN12C renal; T-47D breast; HL-60(TB) leukemia; TK-10 renal; LOX IMVI melanoma.
Holding throughout (assay): NCI-60 cell line screen, 48 h

As to `CCC(Sc1nnc2c3ccccc3n(CC)c2n1)C(=O)Nc1ccccc1OC` (centres undefined), the GI50 in the test on EKVX NSCLC was 1080 nM; with COLO 205 colon it was greater than 100000 nM; in the test with BT-549 breast, greater than 100000 nM; in the test on MALME-3M melanoma it was greater than 100 µM; in the test on SK-MEL-5 melanoma it was 60.8 µM; with SN12C renal, 3.47 µM. The GI50 in the test with T-47D breast is 7.74 µM; in the test with HL-60(TB) leukemia it was 3.02 µM; in the test on TK-10 renal, greater than 100000 nM; in the test on LOX IMVI melanoma, greater than 100 µM. Also, the TGI in the test on EKVX NSCLC was greater than 30.1 µM; in the test with COLO 205 colon, greater than 100 µM; in the test on BT-549 breast, greater than 100 µM; in the test with MALME-3M melanoma, greater than 100 µM; in the test with SK-MEL-5 melanoma, greater than 100 µM; in the test on SN12C renal it was greater than 100 µM. In addition, the TGI was greater than 100 µM with T-47D breast, 6.91 µM in the test with HL-60(TB) leukemia, greater than 100 µM in the test on TK-10 renal and greater than 100 µM with LOX IMVI melanoma.

Take `O=C(Nc1ccc(Br)cc1)Nc1n[nH]c2ccccc12`: the GI50 in the test with EKVX NSCLC is greater than 100000 nM; in the test with COLO 205 colon it was greater than 100000 nM; with BT-549 breast, greater than 100000 nM; in the test on MALME-3M melanoma, greater than 19.7 µM; with SK-MEL-5 melanoma it was greater than 88.7 µM; in the test on SN12C renal it was greater than 100 µM. The GI50 with T-47D breast was greater than 100 µM; with HL-60(TB) leukemia, 18.7 µM; in the test on LOX IMVI melanoma it was greater than 100 µM. Moreover, the TGI with EKVX NSCLC, with COLO 205 colon, with BT-549 breast, in the test with MALME-3M melanoma, with SK-MEL-5 melanoma and in the test on SN12C renal was greater than 100 µM in each case. Besides, the TGI is greater than 100 µM in the test on T-47D breast, greater than 90 µM in the test on HL-60(TB) leukemia, greater than 26.7 µM in the test on TK-10 renal and greater than 100 µM in the test with LOX IMVI melanoma.

`O=C1OC(c2ccc(O)c(-c3ccccc3)c2)(c2ccc(O)c(-c3ccccc3)c2)c2c(Cl)c(Cl)c(Cl)c(Cl)c21`: the TGI in the test on EKVX NSCLC, in the test with COLO 205 colon, in the test with BT-549 breast, in the test with MALME-3M melanoma, in the test on SK-MEL-5 melanoma and in the test with SN12C renal was greater than 100 µM each time. Also, the TGI in the test on T-47D breast was greater than 100 µM; in the test with HL-60(TB) leukemia, 12.3 µM; with TK-10 renal, greater than 100 µM; in the test with LOX IMVI melanoma, greater than 100 µM.

Consider `CC(=O)OC1COC(S[As](C)C)C(OC(C)=O)C1OC(C)=O` (centres undefined), for which the GI50 is 2070 nM in the test on EKVX NSCLC; 575 nM with COLO 205 colon; 755 nM in the test with BT-549 breast; 0.0159 µM in the test with MALME-3M melanoma; 0.0658 µM with SK-MEL-5 melanoma; 0.48 µM in the test on SN12C renal. Besides, the GI50 was 2.67 µM in the test on T-47D breast, less than 0.0158 µM in the test on HL-60(TB) leukemia, 80 nM in the test with TK-10 renal and 0.223 µM in the test with LOX IMVI melanoma. Moreover, the TGI came out at 17.1 µM in the test with EKVX NSCLC; 4.96 µM with COLO 205 colon; 6.22 µM with BT-549 breast; 0.287 µM in the test on MALME-3M melanoma; 0.253 µM with SK-MEL-5 melanoma; 2.74 µM in the test with SN12C renal. Moreover, the TGI with T-47D breast worked out at 19.9 µM; in the test on HL-60(TB) leukemia it was 0.072 µM; in the test with TK-10 renal, 0.832 µM; in the test with LOX IMVI melanoma it was 0.691 µM.

On to `CCC[C@H](N[C@@H]1CCc2cc(F)cc(F)c2C1)C(=O)Nc1cn(C(C)(C)CNCC(C)(C)C)cn1`, for which the GI50 in the test with EKVX NSCLC is 21000 nM; in the test with COLO 205 colon, 12500 nM; in the test on BT-549 breast it was 11500 nM; in the test with MALME-3M melanoma, 13.4 µM; in the test with SK-MEL-5 melanoma it was 12.2 µM; with SN12C renal, 24.8 µM. For the same molecule, the GI50 was 16 µM in the test with T-47D breast, 16.3 µM with HL-60(TB) leukemia, 21800 nM with TK-10 renal and 15.5 µM with LOX IMVI melanoma. For the same molecule, the TGI is greater than 100 µM in the test with EKVX NSCLC; 26.9 µM in the test on COLO 205 colon; 37.8 µM in the test with BT-549 breast; 28.2 µM in the test with MALME-3M melanoma; 24.8 µM with SK-MEL-5 melanoma; greater than 100 µM in the test with SN12C renal. For the same molecule, the TGI with T-47D breast is greater than 65.4 µM; with HL-60(TB) leukemia, 43.4 µM; in the test with TK-10 renal it was 72.7 µM; in the test with LOX IMVI melanoma, 30.6 µM.

As for `CCOC(=O)CC1(O)C=CC(=O)C=C1`, the GI50 in the test on EKVX NSCLC is 3.24 µg/mL; with COLO 205 colon, 2.59 µg/mL; with BT-549 breast it was 1.48 µg/mL; with MALME-3M melanoma, 0.914 µg/mL; in the test on SK-MEL-5 melanoma, 1.96 µg/mL; in the test with SN12C renal, 2.46 µg/mL. Moreover, the GI50 with T-47D breast was 0.667 µg/mL; in the test with HL-60(TB) leukemia, 1 µg/mL; in the test on TK-10 renal, 2.12 µg/mL; in the test on LOX IMVI melanoma, 0.498 µg/mL. The TGI with EKVX NSCLC was 6.16 µg/mL; with COLO 205 colon, 6.19 µg/mL; with BT-549 breast, 3.67 µg/mL; with MALME-3M melanoma, 2.89 µg/mL; in the test with SK-MEL-5 melanoma it was 3.86 µg/mL; in the test on SN12C renal, 4.6 µg/mL. For the same molecule, the TGI came out at 2.31 µg/mL with T-47D breast, 24.3 µg/mL in the test with HL-60(TB) leukemia, 6.04 µg/mL with TK-10 renal and 1.68 µg/mL in the test on LOX IMVI melanoma.

Consider `COc1ccc(-c2n[nH]nc2-c2csc3ccccc23)cc1OC`, for which the GI50 with EKVX NSCLC was 3420 nM; with COLO 205 colon, 2820 nM; with BT-549 breast, 2170 nM; with MALME-3M melanoma, 13.3 µM; in the test on SK-MEL-5 melanoma, 2.83 µM; in the test with SN12C renal, 8.8 µM. Also, the GI50 was 2.83 µM in the test on T-47D breast, 1.7 µM with HL-60(TB) leukemia, 2980 nM with TK-10 renal and 3.04 µM in the test on LOX IMVI melanoma. Besides, the TGI was greater than 100 µM in the test on EKVX NSCLC; 11.7 µM in the test on COLO 205 colon; 12.5 µM in the test on BT-549 breast; 62.1 µM with MALME-3M melanoma; 8.79 µM in the test with SK-MEL-5 melanoma; 79.9 µM with SN12C renal. The TGI in the test with T-47D breast was 32.6 µM; in the test on HL-60(TB) leukemia, 25.1 µM; in the test on TK-10 renal, 19.8 µM; in the test on LOX IMVI melanoma, 15.7 µM.

`CCc1c2c(nc3cc4c(cc13)OCO4)-c1cc3c(c(=O)n1C2)COC(=O)[C@@]3(CC)OC(=O)CN`: the GI50 was 32.1 nM in the test with EKVX NSCLC; 133 nM with COLO 205 colon; less than 10 nM in the test on BT-549 breast; less than 0.015 µM in the test on MALME-3M melanoma; less than 0.01 µM in the test with SK-MEL-5 melanoma; less than 0.01 µM in the test on SN12C renal. The GI50 in the test with T-47D breast is less than 0.01 µM; in the test on HL-60(TB) leukemia it was less than 0.01 µM; in the test on TK-10 renal, 178 nM; in the test on LOX IMVI melanoma, less than 0.01 µM. Besides, the TGI with EKVX NSCLC is greater than 100 µM; with COLO 205 colon it was 1.13 µM; in the test on BT-549 breast, less than 0.0366 µM; with MALME-3M melanoma, 1.43 µM; with SK-MEL-5 melanoma, 0.037 µM; in the test on SN12C renal, 0.034 µM. The TGI in the test with T-47D breast is 0.512 µM; in the test on HL-60(TB) leukemia, less than 0.01 µM; in the test on TK-10 renal, 20 µM; in the test on LOX IMVI melanoma, 0.0902 µM.
